From patent US20250352508A1, “PREVENTION AND TREATMENT OF POST-ACUTE INFECTION SYNDROMES” (InflammX Therapeutics, Inc., priority 2024, published 2025)
Where two headings read alike, the source gives them in different places. Where a SMILES comes first, the peptide text is derived from it.

Experiments:
NLRP3 inflammasome = NLRP3 inflammasome (Homo sapiens, UniProt Q96P20); conditions: cited from earlier work
NLRC4 inflammasome = conditions: cited from earlier work
AIM2 inflammasome = conditions: cited from earlier work
Cx43 hemichannel = conditions: glioma cells; read-out: IC50 (half maximal inhibitory concentration) for the inhibition of ATP release; cited from earlier work
gap junction = gap junction (Homo sapiens, UniProt P17302); conditions: cited from earlier work
gap junction, sequence (P17302 whole entry): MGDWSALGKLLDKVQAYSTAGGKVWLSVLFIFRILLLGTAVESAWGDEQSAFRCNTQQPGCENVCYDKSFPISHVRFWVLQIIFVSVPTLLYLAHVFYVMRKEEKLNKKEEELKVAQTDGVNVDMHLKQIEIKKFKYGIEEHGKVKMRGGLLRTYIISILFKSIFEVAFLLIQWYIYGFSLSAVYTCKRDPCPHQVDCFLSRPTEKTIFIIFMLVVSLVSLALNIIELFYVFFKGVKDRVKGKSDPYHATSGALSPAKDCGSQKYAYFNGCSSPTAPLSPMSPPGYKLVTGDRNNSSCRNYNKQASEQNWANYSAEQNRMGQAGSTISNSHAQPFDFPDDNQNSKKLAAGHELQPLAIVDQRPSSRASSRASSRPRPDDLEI

Panx1 channel = Panx1 channel (Homo sapiens, UniProt Q96RD7); conditions: cited from earlier work
Panx1 channel, sequence (Q96RD7 whole entry): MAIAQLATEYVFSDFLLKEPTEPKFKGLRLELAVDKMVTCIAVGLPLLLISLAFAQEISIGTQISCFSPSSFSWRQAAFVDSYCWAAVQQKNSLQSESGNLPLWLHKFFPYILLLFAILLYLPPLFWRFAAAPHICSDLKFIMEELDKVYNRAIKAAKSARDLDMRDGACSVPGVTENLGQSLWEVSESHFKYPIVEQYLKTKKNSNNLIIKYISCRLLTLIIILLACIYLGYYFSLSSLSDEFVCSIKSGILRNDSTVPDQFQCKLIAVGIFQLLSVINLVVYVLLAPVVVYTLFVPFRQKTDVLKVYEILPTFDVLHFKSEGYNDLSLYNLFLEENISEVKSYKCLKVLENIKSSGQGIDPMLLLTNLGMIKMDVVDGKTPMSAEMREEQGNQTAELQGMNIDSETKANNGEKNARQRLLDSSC

[1] = Pharmacokinetics of tonabersat after single and repeat oral dosing, 40 and 80 mg once daily; format: in vivo, human; conditions: for half-life: human, plasma
Description: In some embodiments, a connexin hemichannel modulator (e.g., a connexin 43 hemichannel modulator) is provided in an amount to achieve and/or to maintain a steady state amount over a desired period of time, including some or part of a dosing regimen for use in addressing one or more signs or symptom of a post-acute infection syndrome, disorder, disease or condition. In some embodiments, the connexin hemichannel modulator (e.g., a connexin 43 hemichannel modulator) is a compound according to Formula I. In some embodiments, the connexin hemichannel modulator (e.g., a connexin 43 hemichannel modulator) is a compound according to Formula II.

[2] = Pharmacokinetics of tonabersat after single and multiple dosing, 240 to 400 mg, fasted and fed (MAD and DDI parts); format: in vivo, human; conditions: for AUC(0-inf) / half-life / Tmax: human, in vivo, oral; for AUC(0-inf): 320 mg; for half-life: read-out: geometric mean t1/2; for Tmax: read-out: median tmax
Description: In some embodiments, a connexin hemichannel modulator (e.g., a connexin 43 hemichannel modulator) is provided in an amount to achieve and/or to maintain a steady state amount over a desired period of time, including some or part of a dosing regimen for use in addressing one or more signs or symptom of a post-acute infection syndrome, disorder, disease or condition. In some embodiments, the connexin hemichannel modulator (e.g., a connexin 43 hemichannel modulator) is a compound according to Formula I. In some embodiments, the connexin hemichannel modulator (e.g., a connexin 43 hemichannel modulator) is a compound according to Formula II. […] There was no evidence of time- or dose-related changes in systemic exposure of tonabersat. For a drug to show no change in its pharmacokinetic behavior on chronic dosing, the steady-state accumulation ratio (Rs) should equal unity. […] After both single and multiple dosing, Cmax and AUC increased with increasing dose in a dose-proportional manner across the dose range studied. […] Therefore, total exposure (extent of absorption) was not affected by food administration, whereas the rate of drug absorption was increased in the presence of food. […] The half-life was not affected by fed conditions.

gap junctions = gap junctions (Homo sapiens, UniProt P08034); set-up: dose or concentration left out as unconfirmed; conditions: cited from earlier work
gap junctions, sequence (P08034 whole entry): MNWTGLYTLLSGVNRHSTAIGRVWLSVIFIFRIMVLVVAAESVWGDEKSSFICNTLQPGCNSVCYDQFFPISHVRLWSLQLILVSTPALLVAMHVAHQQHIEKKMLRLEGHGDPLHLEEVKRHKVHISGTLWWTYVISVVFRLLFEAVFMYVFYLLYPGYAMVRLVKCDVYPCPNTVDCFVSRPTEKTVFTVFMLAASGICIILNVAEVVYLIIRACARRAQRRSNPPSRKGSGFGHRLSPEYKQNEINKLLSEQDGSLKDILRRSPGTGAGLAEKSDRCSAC

NLRP3 inflammasome, sequence (Q96P20 whole entry): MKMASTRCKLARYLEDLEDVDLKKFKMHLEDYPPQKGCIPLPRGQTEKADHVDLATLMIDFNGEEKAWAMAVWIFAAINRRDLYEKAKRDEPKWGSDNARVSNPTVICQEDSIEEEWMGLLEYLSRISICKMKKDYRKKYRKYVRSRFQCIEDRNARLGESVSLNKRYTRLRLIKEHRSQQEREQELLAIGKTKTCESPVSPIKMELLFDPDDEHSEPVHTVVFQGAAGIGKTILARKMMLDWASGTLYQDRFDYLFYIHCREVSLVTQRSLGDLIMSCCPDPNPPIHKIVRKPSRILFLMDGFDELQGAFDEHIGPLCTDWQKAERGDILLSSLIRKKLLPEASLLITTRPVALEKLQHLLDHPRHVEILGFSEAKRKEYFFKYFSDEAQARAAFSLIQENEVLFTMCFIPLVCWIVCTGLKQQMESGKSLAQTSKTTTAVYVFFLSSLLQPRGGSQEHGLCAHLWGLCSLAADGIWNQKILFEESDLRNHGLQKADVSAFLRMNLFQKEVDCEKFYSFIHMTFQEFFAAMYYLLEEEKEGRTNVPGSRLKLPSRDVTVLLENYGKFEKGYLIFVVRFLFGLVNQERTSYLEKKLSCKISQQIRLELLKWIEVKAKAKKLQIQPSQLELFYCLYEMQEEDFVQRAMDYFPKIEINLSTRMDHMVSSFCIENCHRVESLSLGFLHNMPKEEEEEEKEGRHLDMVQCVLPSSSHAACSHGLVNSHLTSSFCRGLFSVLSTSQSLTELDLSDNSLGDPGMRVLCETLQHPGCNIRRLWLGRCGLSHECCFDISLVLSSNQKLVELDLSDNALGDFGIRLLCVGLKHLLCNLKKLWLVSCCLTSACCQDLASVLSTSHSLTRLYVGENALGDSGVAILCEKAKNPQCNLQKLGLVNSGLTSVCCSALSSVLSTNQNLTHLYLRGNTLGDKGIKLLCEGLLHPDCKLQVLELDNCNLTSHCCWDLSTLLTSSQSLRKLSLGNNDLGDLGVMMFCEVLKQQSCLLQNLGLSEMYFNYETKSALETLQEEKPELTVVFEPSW

CC(C)C[C@H](NC(=O)[C@H](Cc1ccccc1)NC(=O)c1c(F)cccc1F)B(O)O [NIC-102, ((R)-1-((S)-2-(2,6-difluorobenzamido)-3-phenylpropanamido)-3-methylbutyl)boronic acid]
effect on NLRP3 inflammasome activation (NLRP3 inflammasome): specifically prevents
effect on NLRC4 inflammasome (NLRC4 inflammasome): no effect
effect on AIM2 inflammasome (AIM2 inflammasome): no effect

CC[C@H](C)[C@H](NC(=O)[C@H](CCC(=O)O)NC(=O)[C@@H](NC(=O)[C@H](CCC(N)=O)NC(=O)[C@H](CCCCN)NC(=O)[C@H](CCCNC(=N)N)NC(=O)[C@H](CCCNC(=N)N)NC(=O)[C@H](CCCNC(=N)N)NC(=O)[C@H](CCC(N)=O)NC(=O)[C@H](CCCNC(=N)N)NC(=O)[C@H](CCCNC(=N)N)NC(=O)[C@H](CCCCN)NC(=O)[C@H](CCCCN)NC(=O)[C@H](CCCNC(=N)N)NC(=O)CNC(=O)[C@@H](N)Cc1ccc(O)cc1)[C@@H](C)CC)C(=O)N[C@@H](CCCCN)C(=O)N[C@@H](CCCCN)C(=O)N[C@@H](Cc1ccccc1)C(=O)N[C@@H](CCCCN)C(=O)O [TAT-^43Gap19] (H-YGRKKRRQRRRKQIEIKKFK-OH; N-terminus and C-terminus assumed)
IC50 (Cx43 hemichannel): 7 µM

CC[C@H](C)[C@H](NC(=O)[C@H](CCC(=O)O)NC(=O)[C@@H](NC(=O)[C@H](CCC(N)=O)NC(=O)[C@@H](N)CCCCN)[C@@H](C)CC)C(=O)N[C@@H](CCCCN)C(=O)N[C@@H](CCCCN)C(=O)N[C@@H](Cc1ccccc1)C(=O)N[C@@H](CCCCN)C(=O)O [^43Gap19] (H-KQIEIKKFK-OH; N-terminus and C-terminus assumed)
IC50 (Cx43 hemichannel): 47 µM
effect on gap junction activity (selectivity) (gap junction): does not affect
effect on Panx1 channel activity (selectivity) (Panx1 channel): does not affect

CC(=O)c1ccc2c(c1)[C@H](NC(=O)c1ccc(F)c(Cl)c1)[C@H](O)C(C)(C)O2 [tonabersat, N-[(3S,4S)-6-acetyl-3-hydroxy-2,2-dimethyl-3,4-dihydrochromen-4-yl]-3-chloro-4-fluorobenzamide]
dose proportionality of pharmacokinetics (dose-normalized Cmax and AUC(0-t)) ([1]; between 40 and 80 mg once daily, single or multiple doses): approximately dose proportional
half-life ([1]; oral, read-out: elimination half-life): 24 to 36 h
half-life ([1]; oral, read-out: mean half-life (converted)): ~25 h
half-life ([1]; po, single and repeat oral dosing, read-out: terminal elimination phase T1/2): 24 to 33 h
time tonabersat generally quantifiable in the plasma post-dose ([1]; single and repeat oral dosing): at least 96 hours
time- or dose-related changes in systemic exposure ([1]; single and repeat oral dosing): no evidence
half-life, effect of fed conditions ([2]; fed vs fasted): not affected
rate of drug absorption in the presence of food ([2]; fed vs fasted): increased
total exposure (extent of absorption), effect of food administration ([2]; fed vs fasted): not affected
AUC(0-inf) ([2]; single dose 320 mg fasted): 285 µg·h/mL
AUC(0-inf) ([2]; single dose 320 mg fed): 296 µg·h/mL
half-life ([2]; after multiple dosing, Day 14): 37.5 to 41.6 h
half-life ([2]; after single dosing): 28.9 to 37.8 h
Tmax ([2]; single dose 240 mg, fasted): 16 h
Tmax ([2]; single dose 320 mg, fasted): 10.5 h
Tmax ([2]; single or multiple dosing 240 mg to 400 mg, fed (light, medium or fed)): 3 to 4 h
accumulation of Cmax and AUC ([2]; multiple dosing 13 to 14 consecutive days, Days 13 or 14 compared to Day 1): approximately 3 fold
Cmax and AUC increase with increasing dose ([2]; single and multiple dosing, across the dose range studied): dose-proportional

GHGDPLHLEEVKC [^32Gap24]
effect on gap junctions (gap junctions): without affecting
